Data as given in patent US20220354805A1, “Cannabidiol (CBD) as Chemical for Treating Aging-related Degenerative Diseases and Promoting Health Aging” (Hemix Biotech Limited, priority 2021, published 2022).

How the values were obtained:
[1] = tested on: p21 and p16 in wildtype and LMNA^G609G/G609G MEFs; assay: Western blotting of senescence markers in MEFs; type: cell-based, mouse; conditions: 4-day CBD treatment
Protocol: In the step of determining the protein expression levels of senescence markers, the primary mouse embryonic fibroblasts (MEFs) at passage 3 were seeded and cultured in 6-well plate and treated with CBD for 4 days. The cells were then washed twice with ice-cold phosphate buffered saline (PBS). RIPA 150 buffer (20 mM Tris-HCl pH 7.5, 1 mM EDTA pH 8.0, 150 mM NaCl, 1% Nonidet P-40, 0.5% sodium deoxycholate) supplemented with 1 mM dithiothreitol (DTT) and proteinase inhibitors was added to the cells and shook at 4° C. for 15 minutes. The cells were then collected into Eppendorf tubes and centrifuged at 12000 rpm at 4° C. for 10 minutes. The supernatant was collected and 6×SDS sample buffer (20 mM Tris-HCl pH 7.5, 30% glycerol, 10% sodium dodecyl sulfate (SDS), 0.6 M DTT, 0.03% bromophenol blue) was added. The samples were boiled for 5 minutes. Then they were ready for sodium dodecyl sulfate-polyacrylamide gel electrophoresis (SDS-PAGE) for Western blotting analysis. Depending on the sizes of target proteins, 7-15% polyacrylamide separating gel and 4% polyacrylamide stacking gel were made. Samples and protein ladders were loaded onto the polyacrylamide gel. Sodium dodecyl sulfate-polyacrylamide gel electrophoresis (SDS-PAGE) was performed in running buffer (25 mM Tris-HCl, 190 mM glycine and 0.1% SDS) under constant voltage of 100V for 20-30 minutes until the samples and protein ladders reached the separating gel. By then, SDS-PAGE was set to run under constant voltage of 120V for about 1 hour, depending on the size of target proteins. The proteins in the separating gel were transferred to polyvinylidene difluoride (PVDF) membrane in transfer buffer (25 mM Tris-HCl, 190 mM glycine, and 20% methanol) at constant current 0.4 A for 1.5 hours on ice. The membranes were blocked with 5% skimmed milk in phosphate buffered saline Tween-20 solution (PBST): 1×PBS and 0.1% Tween-20 and shook at room temperature for 1 hour. Primary antibodies diluted in 5% skimmed milk in PBST were added to the membrane and shook at 4° C. overnight. […]

[2] = tested on: premature aging LMNA^G609G/G609G mice; assay: Healthspan analysis of LMNA^G609G/G609G mice; type: in vivo, mouse
Protocol: In the step of analyzing the healthspan of LMNA^G609G/G609G mice, for chemical treatment in mice, 2 months old LMNA^G609G/G609G mice were used. They received an intraperitoneal injection (IP) twice a week until they reached the humane point. Different dosages were used for the injection, 50 mg/kg of CBD was identified as the optimal dosage with the greatest extend in healthspan of the treated mice. CBD was dissolved in 5% DMSO and 5% polyethylene glycol (PEG) in sterile saline and stored at −80° C. for up to 1 month.

[3] = tested on: wildtype and LMNA^G609G/G609G MEFs; assay: Cell proliferation rate (population doubling level, PDL) of MEFs; type: cell-based, mouse
Description: In the step of isolating mouse embryo fibroblasts (MEFs), heterozygous (LMNA^G609G/+) mice were set for mating. The date of pregnancy of mice was identified by checking for vaginal plug in the morning following the day of mating. If the vaginal plug was found, the mouse was considered to be pregnant for 0.5 days (E0.5). When the embryos reached E12.5 to E13.5, the pregnant mice were sacrificed, and the embryos were isolated from the mice inside tissue culture hood using sterile utensils. The embryos were placed in phosphate buffered saline (PBS). Their head and liver were removed. A portion of the head was used for genotyping to identify the genotype of each embryo. The body of each embryo was transferred to 1mL of 0.1% Trypsin-EDTA solution in a well of 12-well plate. Using sterile scissors, embryos were cut into small pieces. The 12-well plate was then placed in a 37° C. incubator for 10 minutes. Followed by vigorous pipetting of the embryos in Trypsin-EDTA solution until the embryos wholly dissolved into the solution. The 12-well plate was then placed in 37° C. incubator for 5 minutes. The homogenized solution was then transferred to 9 mL of Gibco's High Glucose Dulbecco's Modified Eagle's Medium (DMEM) supplemented with sodium bicarbonate (3.7 g/L), HEPES (6 g/L), 10% fetal bovine serum (FBS) and penicillin-streptomycin (100 units/mL). The isolated MEFs were considered to be at passage 0 (P0). P3 MEFs were used in experiments as they have optimal cellular responses to stimuli. […]
In the step of determining the cell's proliferation rate and optimal concentration, primary mouse embryonic fibroblasts (MEFs) at passage 3 were counted by using LUNA-II Automated Cell Counter. […] After 4-day and 8-day treatment, the cells were counted again using LUNA-II Automated Cell Counter. The population doubling level (PDL) which reflects the proliferation rate of cells was calculated by the formula: n=3.32×(logUCY−logI)+X, where n=the PDL number, UCY=the cell yield at that time point, I=the initial cell number, and X=the doubling level of the cells used to initiate the subculture being quantitated.

[4] = wildtype and LMNA^G609G/G609G MEFs
[5] = 50 mg/kg CBD IP twice a week from 2 months old

SMILES: C=C(C)[C@@H]1CCC(C)=C[C@H]1c1c(O)cc(CCCCC)cc1O [CBD, Cannabidiol]
- progerin levels ([1]; MEFs): not affected
- p16 level [1, 4]: downregulate
- p21 level [1, 4]: downregulate
- increase in maximum healthspan [2, 5]: 19.8%
- increase in median healthspan [2, 5]: 8%
- increase of healthspan (FIG. 6b legend) ([2]; 50 mg/kg CBD twice a week from 2 months old): 11.2%
- optimal dosage (greatest extend in healthspan) ([2]; IP twice a week, from 2 months old): 50 mg/kg
- effect on PDL ([3]; 10 μM CBD, 4 and 8 days of treatment): increased the PDL to the greatest extent
- effect on PDL (toxicity effect) ([3]; 50 μM CBD, 4 days): decrease in PDL
- optimal concentration (PDL) ([3]; MEFs, 4 and 8 days of treatment): 10 µM
